Assay results taken from patent US6762180B1, “Substituted indolines which inhibit receptor tyrosine kinases” (Boehringer Ingelheim Pharma KG, priority 1999, dated 2004).

system: Human umbilical endothelial cells (HUVEC); test: Inhibition of VEGF165-stimulated HUVEC proliferation (3H-thymidine incorporation); format: cell-based; conditions: HUVEC starved 16 hours, stimulated with 5 ng/ml VEGF165 and 10 μg/ml heparin, 76 hours incubation, then 16 hours 3H-thymidine
Procedure: Human umbilical endothelial cells (HUVEC) were cultivated in IMDM (Gibco BRL), supplemented with 10% foetal calf serum (FBS) (Sigma), 50 μM of β-mercaptoethanol (Fluka), standard antibiotics, 15 μg/ml of endothelial cell growth factor (ECGS, Collaborative Biomedical Products) and 100 μg/ml of heparin (Sigma) on gelatine-coated culture dishes (0.2% gelatine, Sigma) at 37° C., under 5% CO2 in a water-saturated atmosphere.
In order to investigate the inhibitory activity of the compounds according to the invention the cells were starved for 16 hours, i.e. kept in culture medium without growth factors (ECGS+heparin). The cells were detached from the culture dishes using trypsin/EDTA and washed once in serumontaining medium. Then they were seeded out in amounts of 2.5×10^3 cells per well.
The proliferation of the cells was stimulated with 5 ng/ml of VEGF165 (vascular endothelial growth factor; H. Weich, GBF Braunschweig) and 10 μg/ml of heparin. As a control, 6 wells in each dish were not stimulated.
The compounds according to the invention were dissolved in 100% dimethylsulphoxide and added to the cultures in various dilutions in triplicate, the maximum dimethyl sulphoxide concentration being 0.3%.
The cells were incubated for 76 hours at 37° C., then for a further 16 hours ^3H-thymidine (0.1 μCi/well, Amersham) was added in order to determine the DNA synthesis. Then the radioactively labelled cells were immnobilised on filter mats and the radioactivity incorporated was measured in a β-counter. In order to determine the inhibitory activity of the compounds according to the invention the mean value of the non-stimulated cells was subtracted from the mean value of the factor-stimulated cells (in the presence or absence of the compounds according to the invention).
The relative cell proliferation was calculated as a percentage of the control (HUVEC without inhibitor) and the concentration of active substance which inhibits the proliferation of the cells by 50% (IC50) was determined.

Structure (SMILES) | IC50 [nM]
COC(=O)c1ccc2c(c1)NC(=O)/C2=C(\Nc1ccc(N(C)C(=O)CN(C)C)cc1)c1ccccc1 [(m), 3-Z-[1-(4-(N-dimethylaminomethylcarbonyl-N-methyl-amino)-anilino)-1-phenyl-methylene]-6-methoxycarbonyl-2-indolinone] | 20
COC(=O)c1ccc2c(c1)NC(=O)/C2=C(\Nc1ccc(N(C)C(=O)CCN(C)C)cc1)c1ccccc1 [(q), 3-Z-[1-(4-(N-((2-dimethylamino-ethyl)-carbonyl)-N-methyl-amino)-anilino)-1-phenyl-methylene]-6-methoxycarbonyl-2-indolinone] | 20
COC(=O)c1ccc2c(c1)NC(=O)/C2=C(\Nc1ccc(CN2CCCCC2)cc1)c1ccccc1 [(c), 3-Z-[1-(4-(piperidin-1-yl-methyl)-anilino)-1-phenyl-methylene]-6-methoxycarbonyl-2-indolinone] | 10
CCOC(=O)c1ccc2c(c1)NC(=O)/C2=C(\Nc1ccc(N(CCN(C)C)S(C)(=O)=O)cc1)c1ccccc1 [(h), 3-Z-[1-(4-(N-(2-dimethylamino-ethyl)-N-methylsulphonyl-amino)-anilino)-1-phenyl-methylene]-6-ethoxycarbonyl-2-indolinone] | 10
COC(=O)c1ccc2c(c1)NC(=O)/C2=C(\Nc1ccc(N(CC(=O)N(C)C)S(C)(=O)=O)cc1)c1ccccc1 [(p), 3-Z-[1-(4-(N-dimethylaminocarbonylmethyl-N-methylsulphonyl-amino)-anilino)-1-phenyl-methylene]-6-methoxycarbonyl-2-indolinone] | 20
CNCc1ccc(N/C(=C2\C(=O)Nc3cc(C(=O)OC)ccc32)c2ccccc2)cc1 [(s), 3-Z-[1-(4methylaminomethyl-anilino)-1-phenyl-methylene]-6-methoxycarbonyl-2-indolinone] | 40
COC(=O)c1ccc2c(c1)NC(=O)/C2=C(\Nc1ccc(N(CC(=O)N(C)C)C(C)=O)cc1)c1ccccc1 [(j), 3-Z-[1-(4-(N-acetyl-N-dimethylaminocarbonylmethyl-amino)-anilino)-1-phenyl-methylene]-6-methoxycarbonyl-2-indolinone] | 20
CCOC(=O)c1ccc2c(c1)NC(=O)/C2=C(\Nc1ccc(CN2CCCCC2)cc1)c1ccccc1 [(a), 3-Z-[1-(4-(piperidin-1-yl-methyl)-anilino)-1-phenyl-methylene]-6-ethoxycarbonyl-2-indolinone] | 40
COC(=O)c1ccc2c(c1)NC(=O)/C2=C(\Nc1ccc(CN(C)C)cc1)c1ccccc1 [(i), 3-Z-[1-(4-(dimethylaminomethyl)-anilino)-1-phenyl-methylene]-6-methoxycarbonyl-2-indolinone] | 30
COC(=O)c1ccc2c(c1)NC(=O)/C2=C(\Nc1ccc(N(CCN(C)C)S(C)(=O)=O)cc1)c1ccccc1 [(n), 3-Z-[1-(4-(N-(2-dimethylamino-ethyl)-N-methylsulphonyl-amino)-anilino)-1-phenyl-methylene]-6-methoxycarbonyl-2-indolinone] | 20
CCOC(=O)c1ccc2c(c1)NC(=O)/C2=C(\Nc1ccc(N(CCCN(C)C)C(C)=O)cc1)c1ccccc1 [(g), 3-Z-[1-(4-(N-(3-dimethylamino-propyl)-N-acetyl-amino)-anilino)-1-phenyl-methylene]-6-ethoxycarbonyl-2-indolinone] | 3
COC(=O)c1ccc2c(c1)NC(=O)/C2=C(\Nc1ccc(N(CCN(C)C)C(C)=O)cc1)c1ccccc1 [(r), 3-Z-[1-(4-(N-(2-dimethylamino-ethyl)-N-acetyl-amino)-anilino)-1-phenyl-methylene]-6-methoxycarbonyl-2-indolinone] | 10
CCOC(=O)c1ccc2c(c1)NC(=O)/C2=C(\Nc1ccc(CN(C)C)cc1)c1ccccc1 [(d), 3-Z-[1-(4-(dimethylaminomethyl)-anilino)-1-phenyl-methylene]-6-ethoxycarbonyl-2-indolinone] | 20
CCOC(=O)c1ccc2c(c1)NC(=O)/C2=C(\Nc1ccc(N(CCN(C)C)C(C)=O)cc1)c1ccccc1 [(f), 3-Z-[1-(4-(N-(2-dimethylamino-ethyl)-N-acetyl-amino)-anilino)-1-phenyl-methylene]-6-ethoxycarbonyl-2-indolinone] | 10
COC(=O)c1ccc2c(c1)NC(=O)/C2=C(\Nc1ccc(-c2nccn2C)cc1)c1ccccc1 [(l), 3-Z-[1-(4-(1-methyl-imidazol-2-yl)-anilino)-1-phenyl-methylene]-6-methoxycarbonyl-2-indolinone] | 100
CCOC(=O)c1ccc2c(c1)NC(=O)/C2=C(\Nc1ccc(CN2C(C)CCCC2C)cc1)c1ccccc1 (centres unmarked) [(e), 3-Z-[1-(4-((2,6-dimethyl-piperidin-1-yl)-methyl)-anilino)-1-phenyl-methylene]-6-ethoxycarbonyl-2-indolinone] | 50
CCNCc1ccc(N/C(=C2\C(=O)Nc3cc(C(=O)OC)ccc32)c2ccccc2)cc1 [(k), 3-Z-[1-(4-ethylaminomethyl-anilino)-1-phenyl-methylene]-6methoxycarbonyl-2-indolinone] | 30
NC(=O)c1ccc2c(c1)NC(=O)/C2=C(\Nc1ccc(CN2CCCCC2)cc1)c1ccccc1 [(b), 3-Z-[1-(4-(piperidin-1-yl-methyl)-anilino)-1-phenyl-methylene]-6-carbamoyl-2-indolinone] | 350
COC(=O)c1ccc2c(c1)NC(=O)/C2=C(\Nc1ccc(N(CCCN(C)C)S(C)(=O)=O)cc1)c1ccccc1 [(o), 3-Z-[1-(4-(N-(3-dimethylamino-propyl)-N-methylsulphonyl-amino)-anilino)-1-phenyl-methylene]-6methoxycarbonyl-2-indolinone] | 10

system: not given; test: not given; conditions: not given

melting point [°C] | Structure (SMILES)
224 | COC(=O)c1ccc2c(c1)NC(=O)/C2=C(\Nc1ccc(Cc2ccccc2)cc1)c1ccccc1 [Example 3(60), 3-Z-[1-(4-benzyl-anilino)-1-phenyl-methylene]-6-methoxycarbonyl-2-indolinone]
